We go through eleven molecules from ChEMBL document CHEMBL5316303, “[1,2,4]Triazolo[3,4-b]benzothiazole Scaffold as Versatile Nicotinamide Mimic Allowing Nanomolar Inhibition of Different PARP Enzymes” (J Med Chem, 2023).

Data set [1] addresses T1, Protein mono-ADP-ribosyltransferase PARP10 (Homo sapiens, UniProt Q53GL7).
T1 sequence (Q53GL7 whole entry): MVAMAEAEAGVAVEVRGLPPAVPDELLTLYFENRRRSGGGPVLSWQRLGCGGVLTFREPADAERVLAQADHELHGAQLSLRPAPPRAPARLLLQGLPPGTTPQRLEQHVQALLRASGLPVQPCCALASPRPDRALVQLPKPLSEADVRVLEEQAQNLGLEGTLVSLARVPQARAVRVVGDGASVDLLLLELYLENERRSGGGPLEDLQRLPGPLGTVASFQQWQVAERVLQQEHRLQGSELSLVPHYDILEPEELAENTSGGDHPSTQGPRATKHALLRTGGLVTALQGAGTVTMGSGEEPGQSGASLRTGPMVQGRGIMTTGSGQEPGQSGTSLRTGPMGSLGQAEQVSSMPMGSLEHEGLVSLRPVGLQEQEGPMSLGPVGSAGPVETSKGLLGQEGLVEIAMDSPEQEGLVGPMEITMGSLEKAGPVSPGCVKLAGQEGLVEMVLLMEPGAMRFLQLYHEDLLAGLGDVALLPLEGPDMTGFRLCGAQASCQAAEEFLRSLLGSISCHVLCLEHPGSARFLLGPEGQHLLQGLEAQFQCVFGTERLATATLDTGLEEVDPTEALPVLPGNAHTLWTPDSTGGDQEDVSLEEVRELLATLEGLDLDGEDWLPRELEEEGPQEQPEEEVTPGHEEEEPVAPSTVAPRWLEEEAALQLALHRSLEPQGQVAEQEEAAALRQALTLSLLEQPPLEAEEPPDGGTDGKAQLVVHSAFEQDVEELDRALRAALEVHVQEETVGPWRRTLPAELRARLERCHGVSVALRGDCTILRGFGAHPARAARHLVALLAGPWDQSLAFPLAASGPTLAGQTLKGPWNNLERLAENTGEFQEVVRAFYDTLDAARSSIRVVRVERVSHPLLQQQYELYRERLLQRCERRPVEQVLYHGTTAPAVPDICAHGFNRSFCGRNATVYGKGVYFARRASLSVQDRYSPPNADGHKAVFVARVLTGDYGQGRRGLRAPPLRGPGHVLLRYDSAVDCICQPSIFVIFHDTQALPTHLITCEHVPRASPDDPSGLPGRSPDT
Kind of data set: Inhibition of N-terminal MBP tagged/C-terminal PARP10 (unknown origin) expressed in Escherichia coli in presence of NAD+.

Data set [2] deals with T2, Protein mono-ADP-ribosyltransferase PARP15 (Homo sapiens, UniProt Q460N3).
T2 sequence (Q460N3 whole entry): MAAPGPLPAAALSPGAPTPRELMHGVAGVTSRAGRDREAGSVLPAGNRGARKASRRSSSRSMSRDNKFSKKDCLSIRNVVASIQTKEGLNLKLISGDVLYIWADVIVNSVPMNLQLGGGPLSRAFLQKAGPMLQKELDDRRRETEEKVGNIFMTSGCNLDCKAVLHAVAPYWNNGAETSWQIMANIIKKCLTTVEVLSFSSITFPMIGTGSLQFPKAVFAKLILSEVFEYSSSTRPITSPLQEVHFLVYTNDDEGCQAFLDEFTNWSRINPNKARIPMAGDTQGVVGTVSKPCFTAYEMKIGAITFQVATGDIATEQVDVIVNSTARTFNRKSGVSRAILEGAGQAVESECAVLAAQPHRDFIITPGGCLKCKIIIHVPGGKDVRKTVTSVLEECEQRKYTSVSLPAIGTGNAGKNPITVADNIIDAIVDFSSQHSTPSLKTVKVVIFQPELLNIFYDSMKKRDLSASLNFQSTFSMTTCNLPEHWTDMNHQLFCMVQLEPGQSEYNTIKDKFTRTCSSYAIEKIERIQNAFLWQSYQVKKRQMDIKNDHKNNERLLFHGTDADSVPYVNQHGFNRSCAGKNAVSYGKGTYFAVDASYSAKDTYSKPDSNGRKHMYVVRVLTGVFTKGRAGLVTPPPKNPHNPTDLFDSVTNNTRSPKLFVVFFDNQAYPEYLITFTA
Kind of data set: Inhibition of N-terminal MBP tagged/C-terminal PARP15 (unknown origin) expressed in Escherichia coli in presence of NAD+.

The target of data set [3] is T3, Protein mono-ADP-ribosyltransferase TIPARP (Homo sapiens, UniProt Q7Z3E1).
T3 sequence (Q7Z3E1 whole entry): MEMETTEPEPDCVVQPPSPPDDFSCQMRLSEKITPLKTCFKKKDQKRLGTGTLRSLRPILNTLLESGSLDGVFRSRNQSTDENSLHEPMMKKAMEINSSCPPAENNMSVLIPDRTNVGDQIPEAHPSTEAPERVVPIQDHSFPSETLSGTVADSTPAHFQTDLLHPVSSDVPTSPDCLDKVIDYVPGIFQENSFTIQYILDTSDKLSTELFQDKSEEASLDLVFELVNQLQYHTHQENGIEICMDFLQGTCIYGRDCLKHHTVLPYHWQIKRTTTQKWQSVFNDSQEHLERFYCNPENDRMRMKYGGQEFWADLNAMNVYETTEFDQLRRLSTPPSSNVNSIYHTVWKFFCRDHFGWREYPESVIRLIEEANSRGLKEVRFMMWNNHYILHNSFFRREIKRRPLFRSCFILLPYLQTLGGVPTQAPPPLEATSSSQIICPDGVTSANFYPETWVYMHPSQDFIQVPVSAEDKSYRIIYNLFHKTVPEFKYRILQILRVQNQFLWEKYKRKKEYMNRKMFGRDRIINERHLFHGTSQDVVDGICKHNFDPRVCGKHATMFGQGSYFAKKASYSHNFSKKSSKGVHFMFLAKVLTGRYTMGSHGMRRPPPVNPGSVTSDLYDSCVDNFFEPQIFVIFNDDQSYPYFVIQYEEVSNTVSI
Description: Inhibition of N-terminal MBP tagged/C-terminal PARP7 (unknown origin) expressed in Escherichia coli in presence of NAD+ by proximity enhanced assay.

Data set [4] addresses Protein mono-ADP-ribosyltransferase PARP6 (Homo sapiens, UniProt Q2NL67). Kind of data set: Inhibition of N-terminal 6 His-MBP tagged human PARP6 expressed in Sf21 cells incubated for 18 hrs in presence of NAD+.
Data set [5] deals with HEK-293T. Description: Cytotoxicity in […] cells at 10 to 100 uM measured after 24 hrs by WST-1 based colorimetric assay. In kind it is toxicity, cell-based. The note with it: human, dose 10-100 µM. For orientation: Tetrazolium dyes change colour on reduction, which living cells bring about.
Data set [6] in a line: Stability in human plasma measured upto 24 hrs by UV/LC-MS analysis. Type of data set: ADME, cell-free.
Data set [7] can be described thus: Stability of the compound in MeOH measured upto 24 hrs by UV/LC-MS analysis. In kind it is physicochemical.
Data set [8] is described as follows: Stability of the compound in PBS buffer at pH 7.4 measured upto 24 hrs by UV/LC-MS analysis. Type of data set: physicochemical. The note with it: pH 7.4, 24 h.

Sequence of Protein mono-ADP-ribosyltransferase PARP6 (Q2NL67 whole entry): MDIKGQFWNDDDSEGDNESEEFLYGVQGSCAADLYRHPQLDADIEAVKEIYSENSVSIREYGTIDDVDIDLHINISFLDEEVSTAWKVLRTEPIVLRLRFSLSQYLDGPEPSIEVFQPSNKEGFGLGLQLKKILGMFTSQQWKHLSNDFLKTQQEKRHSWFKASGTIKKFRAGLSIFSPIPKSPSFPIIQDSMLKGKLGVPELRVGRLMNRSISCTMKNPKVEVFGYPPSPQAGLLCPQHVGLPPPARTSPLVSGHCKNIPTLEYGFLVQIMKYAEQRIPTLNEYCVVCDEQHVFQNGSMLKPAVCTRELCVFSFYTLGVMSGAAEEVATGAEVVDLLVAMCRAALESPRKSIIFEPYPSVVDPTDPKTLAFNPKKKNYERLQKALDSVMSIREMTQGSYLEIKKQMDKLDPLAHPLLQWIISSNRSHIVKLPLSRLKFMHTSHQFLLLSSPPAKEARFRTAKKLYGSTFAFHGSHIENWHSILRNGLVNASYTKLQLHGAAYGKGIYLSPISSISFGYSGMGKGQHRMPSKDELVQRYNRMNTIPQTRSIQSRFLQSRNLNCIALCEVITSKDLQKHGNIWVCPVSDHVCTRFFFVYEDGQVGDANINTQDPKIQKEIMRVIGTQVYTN

Regarding `COc1ccc(OC)c2c1sc1nnc(NC(=O)C(C)(C)C)n12`, the IC50 entry in data set [1] and in data set [2] was “Not Active” each time.

`COc1ccc(OC)c2c1sc1nnc(S)n12`: the IC50 entry in data set [1] and in data set [2] was “Not Active” throughout.

Regarding `COc1ccc(OC)c2c1sc1nnc(SC)n12`, the IC50 entry in data set [1] and in data set [2] was “Not Active” in each case.

As for `Oc1ccc2c(c1)sc1nncn12`, the IC50 entry in data set [3] and in data set [4] was “Not Active” throughout. The Activity entry in data set [5] is reported as “Non-Toxic”. In addition, the Stability in data set [6], in data set [7] and in data set [8] was greater than 24 h throughout.

`COc1ccc(OC)c2c1sc1nnc(N)n12`: the Activity entry in data set [5] is recorded as “Non-Toxic”. Besides, the Stability in data set [6], in data set [7] and in data set [8] was greater than 24 h throughout.

Regarding `Cc1ccc2c(c1)sc1nnc(NCc3ccc(Cl)cc3)n12`, in data set [1], the IC50 entry was “Not Active”.

With `COc1ccc(OC)c2c1sc1nnc(NC(C)=O)n12`, the IC50 result in data set [1] and in data set [2] was “Not Active” each time.

`Cc1ccc2c(c1)sc1nnc(N)n12`: the Activity entry in data set [5] was “Non-Toxic”. For the same molecule, the Stability in data set [6], in data set [7] and in data set [8] was greater than 24 h throughout.

For the molecule `Oc1ccc(O)c2c1sc1nncn12`, in data set [5], the Activity entry was “Toxic”.

For the molecule `COc1ccc(OC)c2c1sc1nnc(NC(=O)c3ccc(Cl)cc3)n12`, the IC50 result in data set [1] is reported as “Not Active”.

`CC(C)c1ccc2c(c1)sc1nncn12`: the Activity entry in data set [5] is “Toxic”.
